Earlier results as cited in patent US20250241356A1, “ORAL COMPOSITION COMPRISING RECEPTOR MODULATOR” (NICOVENTURES TRADING LIMITED, priority 2022, published 2025).
Read-outs that look alike come from different tables or passages of the source.

What was measured:
[1] = target: TRPM8 (Mus musculus, UniProt Q8R4D5)
TRPM8, sequence (Q8R4D5 whole entry): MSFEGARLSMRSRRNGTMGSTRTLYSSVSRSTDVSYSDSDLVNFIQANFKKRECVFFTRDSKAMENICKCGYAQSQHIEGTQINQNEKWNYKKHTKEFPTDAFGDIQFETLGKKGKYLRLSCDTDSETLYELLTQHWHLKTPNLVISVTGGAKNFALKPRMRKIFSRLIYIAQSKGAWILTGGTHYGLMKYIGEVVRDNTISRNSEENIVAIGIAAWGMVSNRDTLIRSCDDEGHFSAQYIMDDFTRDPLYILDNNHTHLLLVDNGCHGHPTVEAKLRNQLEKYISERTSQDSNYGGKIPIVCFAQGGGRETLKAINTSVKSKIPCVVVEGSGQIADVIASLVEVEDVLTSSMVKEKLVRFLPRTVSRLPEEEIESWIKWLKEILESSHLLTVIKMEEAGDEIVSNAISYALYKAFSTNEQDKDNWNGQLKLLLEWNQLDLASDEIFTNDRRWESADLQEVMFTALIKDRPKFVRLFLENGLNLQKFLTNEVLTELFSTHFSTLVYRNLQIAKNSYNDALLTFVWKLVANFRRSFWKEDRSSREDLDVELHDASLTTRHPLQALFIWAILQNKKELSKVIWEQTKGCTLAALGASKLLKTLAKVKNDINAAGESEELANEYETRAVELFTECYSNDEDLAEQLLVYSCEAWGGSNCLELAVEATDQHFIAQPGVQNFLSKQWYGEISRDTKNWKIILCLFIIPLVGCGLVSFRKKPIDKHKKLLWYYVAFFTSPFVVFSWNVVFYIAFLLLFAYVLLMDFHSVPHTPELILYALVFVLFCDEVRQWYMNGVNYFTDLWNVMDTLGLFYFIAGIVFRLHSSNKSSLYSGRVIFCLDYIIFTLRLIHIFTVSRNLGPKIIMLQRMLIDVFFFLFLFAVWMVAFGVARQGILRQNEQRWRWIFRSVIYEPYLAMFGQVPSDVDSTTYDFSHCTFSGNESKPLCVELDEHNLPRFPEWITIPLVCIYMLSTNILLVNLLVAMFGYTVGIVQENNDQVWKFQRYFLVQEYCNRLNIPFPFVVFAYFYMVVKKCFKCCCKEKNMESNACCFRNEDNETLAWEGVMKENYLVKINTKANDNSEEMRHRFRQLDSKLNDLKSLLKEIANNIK

Structure (SMILES)	solubility in water	solubility in fats and alcohols	chemical stability when isolated (converts via isomerization into trans-bixin (β-bixin))	responses to icilin ([1]; extracellular [H+] increased from pH 7.3 to approximately pH 6)	responses to icilin ([1]; standard physiological solutions of pH 7.3)
CC(/C=C/C=C(C)/C=C/C(=O)O)=C\C=C\C=C(C)\C=C\C=C(C)\C=C\C(=O)O (stereo in doubt) [norbixin, (2E,4E,6E,8E,10E,12E,14E,16E,18E)-4,8,13,17-tetramethylicosa-2,4,6,8,10,12,14,16,18-nonaenedioic acid]	water-soluble				
COC(=O)/C=C/C(C)=C\C=C\C(C)=C\C=C\C=C(C)\C=C\C=C(C)\C=C\C(=O)O [bixin, (2E,4E,6E,8E,10E,12E,14E,16Z,18E)-20-methoxy-4,8,13,17-tetramethyl-20-oxoicosa-2,4,6,8,10,12,14,16,18-nonaenoic acid]	insoluble in water	soluble in fats and alcohols	chemically unstable when isolated		
O=C1NC(c2cccc([N+](=O)[O-])c2)=CCN1c1ccccc1O [icilin, 1-(2-hydroxyphenyl)-4-(3-nitrophenyl)-3,6-dihydropyrimidin-2-one]				abolished	evokes [Ca2+] dependent responses
